Measured values from ChEMBL document CHEMBL3885881, “DrugMatrix”.

Species on record: Rattus norvegicus
Format: toxicity, organism-based, Sprague-Dawley
Conditions: in vivo, po, route oral GAVAGE, […]; for ABSOLUTE EOSINOPHIL / ABSOLUTE LYMPHOCYTE / ABSOLUTE MONOCYTE / ABSOLUTE SEGMENTED NEUTROPHIL / BASOPHIL / EOSINOPHIL / ERYTHROCYTE COUNT / HEMATOCRIT / HEMOGLOBIN / LEUKOCYTE COUNT / LYMPHOCYTE / MEAN CORPUSCULAR HEMOGLOBIN / MEAN CORPUSCULAR HEMOGLOBIN CONCENTRATION / MEAN CORPUSCULAR VOLUME / MONOCYTE / NEUTROPHIL / NUCLEATED RED BLOOD CELLS / PLATELET COUNT: tissue Blood; for ALANINE AMINOTRANSFERASE / ALBUMIN / ALKALINE PHOSPHATASE / ASPARTATE AMINOTRANSFERASE / BLOOD UREA NITROGEN / CARBON DIOXIDE / CHLORIDE / CHOLESTEROL / CREATINE PHOSPHOKINASE / CREATININE / GLUCOSE / LACTATE DEHYDROGENASE / LIPASE / PHOSPHORUS / POTASSIUM / SODIUM / TOTAL BILIRUBIN / TOTAL PROTEIN / URIC ACID: tissue Plasma
[1] = 0 mg/kg, 6 h, vehicle control, dose level Control, time 0.25 day
[2] = 0 mg/kg, 24 h, vehicle control, dose level Control, time 1 day
[3] = 130 mg/kg, 6 h, dose level Low, time 0.25 day

Description: DrugMatrix - Regimen: Single

SMILES: CCOC(=O)C(C)(C)Oc1ccc(Cl)cc1 [CLOFIBRATE]
- ABSOLUTE EOSINOPHIL [1]: 0 CELLS/uL
- ABSOLUTE LYMPHOCYTE [1]: 8631 CELLS/uL
- ABSOLUTE MONOCYTE [1]: 171.17 CELLS/uL
- ABSOLUTE SEGMENTED NEUTROPHIL [1]: 1214.5 CELLS/uL
- BASOPHIL [1]: 0%
- EOSINOPHIL [1]: 0%
- ERYTHROCYTE COUNT [1]: 5.42 x10E6/uL
- HEMATOCRIT [1]: 34.7%
- HEMOGLOBIN [1]: 13.67 G/DL
- LEUKOCYTE COUNT [1]: 10.02 x10E3/uL
- LYMPHOCYTE [1]: 86.17%
- MEAN CORPUSCULAR HEMOGLOBIN [1]: 25.27 pg
- MEAN CORPUSCULAR HEMOGLOBIN CONCENTRATION [1]: 39.42 G/DL
- MEAN CORPUSCULAR VOLUME [1]: 64.12 fL
- MONOCYTE [1]: 1.67%
- NEUTROPHIL [1]: 12.17%
- NUCLEATED RED BLOOD CELLS [1]: 0 /100WBC
- PLATELET COUNT [1]: 1050 x10E3/uL
- ALANINE AMINOTRANSFERASE [1]: 61 u/L
- ALBUMIN [1]: 4.67 G/DL
- ALKALINE PHOSPHATASE [1]: 312.5 u/L
- ASPARTATE AMINOTRANSFERASE [1]: 117.5 u/L
- BLOOD UREA NITROGEN [1]: 8.67 mg/dL
- CARBON DIOXIDE [1]: 26.33 mmol/L
- CHLORIDE [1]: 100.5 MEQ/L
- CHOLESTEROL [1]: 72 mg/dL
- CREATINE PHOSPHOKINASE [1]: 283.33 u/L
- CREATININE [1]: 0.28 mg/dL
- GLUCOSE [1]: 172 mg/dL
- LACTATE DEHYDROGENASE [1]: 95.33 u/L
- LIPASE [1]: 10.17 u/L
- PHOSPHORUS [1]: 9.9 mg/dL
- POTASSIUM [1]: 5.75 MEQ/L
- SODIUM [1]: 142.4 MEQ/L
- TOTAL BILIRUBIN [1]: 0.3 mg/dL
- TOTAL PROTEIN [1]: 5.43 G/DL
- URIC ACID [1]: 0.73 mg/dL
- ABSOLUTE EOSINOPHIL [2]: 90.83 CELLS/uL
- ABSOLUTE LYMPHOCYTE [2]: 14725.17 CELLS/uL
- ABSOLUTE MONOCYTE [2]: 220 CELLS/uL
- ABSOLUTE SEGMENTED NEUTROPHIL [2]: 1080.67 CELLS/uL
- BASOPHIL [2]: 0%
- EOSINOPHIL [2]: 0.67%
- ERYTHROCYTE COUNT [2]: 5.3 x10E6/uL
- HEMATOCRIT [2]: 33.4%
- HEMOGLOBIN [2]: 13.4 G/DL
- LEUKOCYTE COUNT [2]: 16.12 x10E3/uL
- LYMPHOCYTE [2]: 91.17%
- MEAN CORPUSCULAR HEMOGLOBIN [2]: 25.3 pg
- MEAN CORPUSCULAR HEMOGLOBIN CONCENTRATION [2]: 40.12 G/DL
- MEAN CORPUSCULAR VOLUME [2]: 63.05 fL
- MONOCYTE [2]: 1.5%
- NEUTROPHIL [2]: 6.67%
- NUCLEATED RED BLOOD CELLS [2]: 0 /100WBC
- PLATELET COUNT [2]: 1062 x10E3/uL
- ALANINE AMINOTRANSFERASE [2]: 69 u/L
- ALBUMIN [2]: 4.33 G/DL
- ALKALINE PHOSPHATASE [2]: 269 u/L
- ASPARTATE AMINOTRANSFERASE [2]: 83.67 u/L
- BLOOD UREA NITROGEN [2]: 14 mg/dL
- CARBON DIOXIDE [2]: 29 mmol/L
- CHLORIDE [2]: 100.83 MEQ/L
- CHOLESTEROL [2]: 66.67 mg/dL
- CREATINE PHOSPHOKINASE [2]: 355 u/L
- CREATININE [2]: 0.18 mg/dL
- GLUCOSE [2]: 161.33 mg/dL
- LACTATE DEHYDROGENASE [2]: 123.33 u/L
- LIPASE [2]: 10.67 u/L
- PHOSPHORUS [2]: 8.83 mg/dL
- POTASSIUM [2]: 6.06 MEQ/L
- SODIUM [2]: 142.45 MEQ/L
- TOTAL BILIRUBIN [2]: 0.2 mg/dL
- TOTAL PROTEIN [2]: 5.72 G/DL
- URIC ACID [2]: 1.27 mg/dL
- ABSOLUTE EOSINOPHIL [3]: 53.33 CELLS/uL
- ABSOLUTE LYMPHOCYTE [3]: 12668.17 CELLS/uL
- ABSOLUTE MONOCYTE [3]: 233.17 CELLS/uL
- ABSOLUTE SEGMENTED NEUTROPHIL [3]: 1278.67 CELLS/uL
- BASOPHIL [3]: 0%
- EOSINOPHIL [3]: 0.33%
- ERYTHROCYTE COUNT [3]: 5.56 x10E6/uL
- HEMATOCRIT [3]: 34.18%
- HEMOGLOBIN [3]: 13.43 G/DL
- LEUKOCYTE COUNT [3]: 14.23 x10E3/uL
- LYMPHOCYTE [3]: 88.83%
- MEAN CORPUSCULAR HEMOGLOBIN [3]: 24.17 pg
- MEAN CORPUSCULAR HEMOGLOBIN CONCENTRATION [3]: 39.33 G/DL
- MEAN CORPUSCULAR VOLUME [3]: 61.53 fL
- MONOCYTE [3]: 1.67%
- NEUTROPHIL [3]: 9.17%
- NUCLEATED RED BLOOD CELLS [3]: 0 /100WBC
- PLATELET COUNT [3]: 1136.67 x10E3/uL
- ALANINE AMINOTRANSFERASE [3]: 40.17 u/L
- ALBUMIN [3]: 4.38 G/DL
- ALKALINE PHOSPHATASE [3]: 384.83 u/L
- ASPARTATE AMINOTRANSFERASE [3]: 76.67 u/L
- BLOOD UREA NITROGEN [3]: 7.4 mg/dL
- CARBON DIOXIDE [3]: 25 mmol/L
- CHLORIDE [3]: 101.4 MEQ/L
- CHOLESTEROL [3]: 63.33 mg/dL
- CREATINE PHOSPHOKINASE [3]: 249.67 u/L
- CREATININE [3]: 0.36 mg/dL
- GLUCOSE [3]: 139.83 mg/dL
- LACTATE DEHYDROGENASE [3]: 146.17 u/L
- LIPASE [3]: 10.2 u/L
- PHOSPHORUS [3]: 10.1 mg/dL
- POTASSIUM [3]: 5.97 MEQ/L
- SODIUM [3]: 142.94 MEQ/L
- TOTAL BILIRUBIN [3]: 0.38 mg/dL
- TOTAL PROTEIN [3]: 5.73 G/DL
- URIC ACID [3]: 0.96 mg/dL
